Reference: publication PMC6496074, “The Evolution of Azole Resistance in Candida albicans Sterol 14α-Demethylase (CYP51) through Incremental Amino Acid Substitutions” (Antimicrobial Agents and Chemotherapy, 2019)
Where “and” joins values, the source holds several entries; their conditions need not be identical. Equal entries are not always repeated.

How the values were obtained:
CaCYP51 Y132H+K143R [1] = target: T1, CaCYP51 Y132H+K143R (Candida albicans, UniProt P10613, K143R/Y132H); assay: Azole ligand binding (type II difference spectra); settings: 4 μM protein, 22°C, ± standard deviation, triplicate, read-out: dissociation constant (Kd)
T1 construct: made in house; host or cells: E. coli DH5α (pCWori+)
Protocol: Studies of azole antifungal binding to 4 μM CaCYP51 proteins were performed as previously described ([53]) using quartz split cuvettes with a 4.5-mm light path. […] Azole antifungals were progressively titrated against the CaCYP51 proteins in 0.1 M Tris-HCl (pH 8.1) and 25% glycerol at 22°C, with equivalent volumes of dimethyl sulfoxide also being added to the CYP51-containing compartment of the reference cuvette. The absorbance difference spectra between 500 and 350 nm were determined after each incremental addition of azole, with binding saturation curves constructed from the change in the peak and trough absorbance (ΔApeak-trough) against the azole concentration. The dissociation constant (Kd) of the enzyme-azole complex for each azole was determined by nonlinear regression (Levenberg-Marquardt algorithm) using a rearrangement of the Morrison equation for tight ligand binding ([54], [55]). Tight binding is normally observed when the Kd for a ligand is similar to or lower than the concentration of the enzyme present ([56]). Where ligand binding was weak, the Michaelis-Menten equation was used to fit the data. Each binding determination was performed in triplicate. The chemical structures of the azole antifungals used in this study are shown in Fig. S5 in the supplemental material.

CaCYP51 Y132F = target: T2, CaCYP51 Y132F (Candida albicans, UniProt P10613, Y132F); assay: CYP51 reconstitution assay; format: biochemical
T2 construct: made in house; host or cells: E. coli DH5α (pCWori+)
Protocol: (§1) Azole antifungal agents were added in 2.5 μl dimethyl sulfoxide, followed by 10 min of incubation at 37°C prior to assay initiation with 4 mM β-NADPH-Na4. The samples were then shaken for 15 min at 37°C. Sterol metabolites were recovered by extraction with ethyl acetate, followed by derivatization with 0.1 ml N,O-bis(trimethylsilyl)trifluoroacetamide (BSTFA)–trimethylchlorosilane (TMCS) (99:1) and 0.3 ml anhydrous pyridine (2 h at 80°C), prior to analysis by gas chromatography-mass spectrometry (GC-MS) ([52]). IC50 determinations were performed in duplicate.

CaCYP51 Y132H+K143R [2] = target: T1, CaCYP51 Y132H+K143R; assay: CYP51 reconstitution assay; format: biochemical
Protocol: as §1

CaCYP51 Q474K = target: T3, CaCYP51 Q474K (Candida albicans, UniProt P10613, Q474K); assay: CYP51 reconstitution assay; format: biochemical
T3 construct: made in house; host or cells: E. coli DH5α (pCWori+)
Protocol: as §1

CaCYP51 F449Y = target: T4, CaCYP51 F449Y (Candida albicans, UniProt P10613, F449Y); assay: CYP51 reconstitution assay; format: biochemical
T4 construct: made in house; host or cells: E. coli DH5α (pCWori+)
Protocol: as §1

CaCYP51 Y257H = target: T5, CaCYP51 Y257H (Candida albicans, UniProt P10613, Y257H); assay: CYP51 reconstitution assay; format: biochemical
T5 construct: made in house; host or cells: E. coli DH5α (pCWori+)
Protocol: as §1

CaCYP51 F126V = target: T6, CaCYP51 F126V (Candida albicans, UniProt P10613, F126V); assay: CYP51 reconstitution assay; format: biochemical
T6 construct: made in house; host or cells: E. coli DH5α (pCWori+)
Protocol: as §1

CaCYP51 G450E = target: T7, CaCYP51 G450E (Candida albicans, UniProt P10613, G450E); assay: CYP51 reconstitution assay; format: biochemical
T7 construct: made in house; host or cells: E. coli DH5α (pCWori+)
Protocol: as §1

CaCYP51 Y447H = target: T8, CaCYP51 Y447H (Candida albicans, UniProt P10613, Y447H); assay: CYP51 reconstitution assay; format: biochemical
T8 construct: made in house; host or cells: E. coli DH5α (pCWori+)
Protocol: as §1

CaCYP51 G307S = target: T9, CaCYP51 G307S (Candida albicans, UniProt P10613, G307S); assay: CYP51 reconstitution assay; format: biochemical
T9 construct: made in house; host or cells: E. coli DH5α (pCWori+)
Protocol: as §1

CaCYP51 G448E = target: T10, CaCYP51 G448E (Candida albicans, UniProt P10613, G448E); assay: CYP51 reconstitution assay; format: biochemical
T10 construct: made in house; host or cells: E. coli DH5α (pCWori+)
Protocol: as §1

CaCYP51 I471T = target: T11, CaCYP51 I471T (Candida albicans, UniProt P10613, I471T); assay: CYP51 reconstitution assay; format: biochemical
T11 construct: made in house; host or cells: E. coli DH5α (pCWori+)
Protocol: as §1

CaCYP51 Wild type = target: T12, CaCYP51 Wild type (Candida albicans, UniProt P10613); assay: CYP51 reconstitution assay; format: biochemical; settings: Wild type
T12 construct: made in house; host or cells: E. coli DH5α (pCWori+)
Protocol: as §1

CaCYP51 V456I = target: T13, CaCYP51 V456I (Candida albicans, UniProt P10613, V456I); assay: CYP51 reconstitution assay; format: biochemical
T13 construct: made in house; host or cells: E. coli DH5α (pCWori+)
Protocol: as §1

CaCYP51 V488I = target: T14, CaCYP51 V488I (Candida albicans, UniProt P10613, V488I); assay: CYP51 reconstitution assay; format: biochemical; settings: mean ± SD, duplicate
T14 construct: made in house; host or cells: E. coli DH5α (pCWori+)
Protocol: as §1

CaCYP51 G464S = target: T15, CaCYP51 G464S (Candida albicans, UniProt P10613, G464S); assay: CYP51 reconstitution assay; format: biochemical
T15 construct: made in house; host or cells: E. coli DH5α (pCWori+)
Protocol: as §1

CaCYP51 K143R = target: T16, CaCYP51 K143R (Candida albicans, UniProt P10613, K143R); assay: CYP51 reconstitution assay; format: biochemical; settings: mean ± SD, duplicate
T16 construct: made in house; host or cells: E. coli DH5α (pCWori+)
Protocol: as §1

CaCYP51 Y132H = target: T17, CaCYP51 Y132H (Candida albicans, UniProt P10613, Y132H); assay: CYP51 reconstitution assay; format: biochemical; settings: mean ± SD, duplicate
T17 construct: made in house; host or cells: E. coli DH5α (pCWori+)
Protocol: as §1

CaCYP51 S405F = target: T18, CaCYP51 S405F (Candida albicans, UniProt P10613, S405F); assay: CYP51 reconstitution assay; format: biochemical
T18 construct: made in house; host or cells: E. coli DH5α (pCWori+)
Protocol: as §1

CaCYP51 F145L = target: T19, CaCYP51 F145L (Candida albicans, UniProt P10613, F145L); assay: CYP51 reconstitution assay; format: biochemical
T19 construct: made in house; host or cells: E. coli DH5α (pCWori+)
Protocol: as §1

CaCYP51 D278N = target: T20, CaCYP51 D278N (Candida albicans, UniProt P10613, D278N); assay: CYP51 reconstitution assay; format: biochemical
T20 construct: made in house; host or cells: E. coli DH5α (pCWori+)
Protocol: as §1

CaCYP51 S279F = target: T21, CaCYP51 S279F (Candida albicans, UniProt P10613, S279F); assay: CYP51 reconstitution assay; format: biochemical
T21 construct: made in house; host or cells: E. coli DH5α (pCWori+)
Protocol: as §1

CaCYP51 G307S+G450E = target: T22, CaCYP51 G307S+G450E (Candida albicans, UniProt P10613, G307S/G450E); assay: CYP51 reconstitution assay; format: biochemical
T22 construct: made in house; host or cells: E. coli DH5α (pCWori+)
Protocol: as §1

CaCYP51 Y118A = target: T23, CaCYP51 Y118A (Candida albicans, UniProt P10613, Y118A); assay: CYP51 reconstitution assay; format: biochemical
T23 construct: made in house; host or cells: E. coli DH5α (pCWori+)
Protocol: as §1

[3] = 0.25 h, 4 μM triazole, % of activity without triazole, read-out: Residual CYP51 activity (%) ± SD

T12 sequence (P10613 whole entry, looked up, natural form): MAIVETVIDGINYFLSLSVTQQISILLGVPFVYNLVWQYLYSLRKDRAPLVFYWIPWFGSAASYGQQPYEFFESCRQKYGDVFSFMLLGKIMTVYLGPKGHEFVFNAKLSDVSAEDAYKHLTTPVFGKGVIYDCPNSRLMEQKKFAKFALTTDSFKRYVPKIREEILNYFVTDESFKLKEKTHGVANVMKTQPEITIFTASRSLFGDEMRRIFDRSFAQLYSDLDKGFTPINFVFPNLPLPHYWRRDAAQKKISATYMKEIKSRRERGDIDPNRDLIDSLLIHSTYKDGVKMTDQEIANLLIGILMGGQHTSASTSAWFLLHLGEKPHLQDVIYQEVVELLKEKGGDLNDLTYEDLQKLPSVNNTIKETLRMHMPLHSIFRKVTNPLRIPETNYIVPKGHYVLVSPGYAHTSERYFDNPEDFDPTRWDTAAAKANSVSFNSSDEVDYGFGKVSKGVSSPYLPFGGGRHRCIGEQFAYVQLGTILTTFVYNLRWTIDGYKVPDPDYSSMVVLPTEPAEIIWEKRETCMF
T1 sequence (P10613 whole entry, looked up, stated change not applied): as the sequence (P10613 whole entry, looked up, natural form) above
T23 sequence (P10613 whole entry, looked up, stated change not applied): as the sequence (P10613 whole entry, looked up, natural form) above
T13 sequence (P10613 whole entry, looked up, stated change not applied): as the sequence (P10613 whole entry, looked up, natural form) above
T10 sequence (P10613 whole entry, looked up, stated change not applied): as the sequence (P10613 whole entry, looked up, natural form) above
T15 sequence (P10613 whole entry, looked up, stated change not applied): as the sequence (P10613 whole entry, looked up, natural form) above
T18 sequence (P10613 whole entry, looked up, stated change not applied): as the sequence (P10613 whole entry, looked up, natural form) above
T21 sequence (P10613 whole entry, looked up, stated change not applied): as the sequence (P10613 whole entry, looked up, natural form) above
T5 sequence (P10613 whole entry, looked up, stated change not applied): as the sequence (P10613 whole entry, looked up, natural form) above

Structure (SMILES): CCC(C)n1ncn(-c2ccc(N3CCN(c4ccc(OCC5COC(Cn6cncn6)(c6ccc(Cl)cc6Cl)O5)cc4)CC3)cc2)c1=O (centres unmarked) [Itraconazole, itraconazole]
- Kd (CaCYP51 Y132H+K143R [1]): 0.387 ± 0.117 µM
- remaining activity at 4 µM (CaCYP51 Y132F; [3]): 0.19 ± 0.04%
- IC50 (CaCYP51 Y132F; mean ± SD, duplicate): 0.309 ± 0.003 µM
- remaining activity at 4 µM (CaCYP51 Y132H+K143R [2]; [3]): 0.7 ± 0.03%
- IC50 (CaCYP51 Y132H+K143R [2]; mean ± SD, duplicate): 0.237 ± 0.007 µM
- remaining activity at 4 µM (CaCYP51 Q474K; [3]): 0.49 ± 0.04%
- IC50 (CaCYP51 Q474K; mean ± SD, duplicate): 0.246 ± 0.006 µM
- remaining activity at 4 µM (CaCYP51 F449Y; [3]): 0.84 ± 0.57%
- IC50 (CaCYP51 F449Y; mean ± SD, duplicate): 0.222 ± 0.011 µM
- remaining activity at 4 µM (CaCYP51 Y257H; [3]): 1.37 ± 0.28%
- IC50 (CaCYP51 Y257H; mean ± SD, duplicate): 0.336 ± 0.014 µM
- remaining activity at 4 µM (CaCYP51 F126V; [3]): 0.22 ± 0.05%
- IC50 (CaCYP51 F126V; mean ± SD, duplicate): 0.206 ± 0.009 µM
- remaining activity at 4 µM (CaCYP51 G450E; [3]): 7.66 ± 0.54%
- IC50 (CaCYP51 G450E; mean ± SD, duplicate): 0.458 ± 0.07 µM
- remaining activity at 4 µM (CaCYP51 Y447H; [3]): 1.45 ± 0.06%
- IC50 (CaCYP51 Y447H; mean ± SD, duplicate): 0.299 ± 0.039 µM
- remaining activity at 4 µM (CaCYP51 G307S; [3]): 0.53 ± 0.21%
- IC50 (CaCYP51 G307S; mean ± SD, duplicate): 0.225 ± 0.007 µM
- remaining activity at 4 µM (CaCYP51 G448E; [3]): 1.75 ± 0.26%
- IC50 (CaCYP51 G448E; mean ± SD, duplicate): 0.238 ± 0.013 µM
- remaining activity at 4 µM (CaCYP51 I471T; [3]): 1.21 ± 0.01%
- IC50 (CaCYP51 I471T; mean ± SD, duplicate): 0.218 ± 0.002 µM
- remaining activity at 4 µM (CaCYP51 Wild type; [3]): 0.03 ± 0.02%
- IC50 (CaCYP51 Wild type; mean ± SD, duplicate, read-out: IC50): 0.39 µM and 0.389 µM
- remaining activity at 4 µM (CaCYP51 V456I; [3]): 3.21 ± 0.07%
- IC50 (CaCYP51 V456I; mean ± SD, duplicate): 0.603 ± 0.002 µM
- IC50 (CaCYP51 V488I): 0.449 ± 0.016 µM
- remaining activity at 4 µM (CaCYP51 G464S; [3]): 0.54 ± 0.11%
- IC50 (CaCYP51 G464S; mean ± SD, duplicate): 0.282 ± 0.006 µM
- IC50 (CaCYP51 K143R): 0.45 ± 0.016 µM
- IC50 (CaCYP51 Y132H): 0.15 ± 0.028 µM
- remaining activity at 4 µM (CaCYP51 S405F; [3]): 2.73 ± 0.13%
- IC50 (CaCYP51 S405F; mean ± SD, duplicate): 0.35 ± 0.019 µM
- remaining activity at 4 µM (CaCYP51 F145L; [3]): 1.99 ± 0.04%
- IC50 (CaCYP51 F145L; mean ± SD, duplicate): 0.3 ± 0.013 µM
- remaining activity at 4 µM (CaCYP51 D278N; [3]): 3 ± 0.19%
- IC50 (CaCYP51 D278N; mean ± SD, duplicate): 0.545 ± 0.044 µM
- remaining activity at 4 µM (CaCYP51 S279F; [3]): 5.97 ± 0.35%
- IC50 (CaCYP51 S279F; mean ± SD, duplicate): 0.569 ± 0.121 µM
- remaining activity at 4 µM (CaCYP51 G307S+G450E; [3]): 0.2 ± 0.04%
- IC50 (CaCYP51 G307S+G450E; mean ± SD, duplicate): 0.318 ± 0.017 µM
- remaining activity at 4 µM (CaCYP51 Y118A; [3]): 1.3 ± 0.59%
- IC50 (CaCYP51 Y118A; mean ± SD, duplicate): 0.17 ± 0.016 µM
